{"source": "patent US20220397565A1", "about": "“METHODS OF SCREENING AND RELATED SYSTEMS” (RECURSION PHARMACEUTICALS, INC., priority 2021, published 2022)", "key": {"[1]": {"test_system": "Cells transduced with BacMam BRAF V600E", "assay": "Morphological profiling of BacMam BRAF V600E transduced cells treated with test agents", "assay_type": "cell-based", "conditions": "for side effect score versus disease score (position relative to the funnel, FIG. 10): cells expressing BRAF V600E, varying concentrations of compound, dot plot FIG. 10; for quantified reversal of the disease state (rescue of BRAF V600E overexpression phenotype): morphological profile of treated vs not treated BRAF V600E-transduced cells, 18 compounds tested", "source_text": "(§1) Morphological profiles may be generated by various methods. In an embodiment, morphologically profiling cells may comprise imaging relevant cells or tracking certain parameters or features of the cells. The tracking may be of staining intensities in one or more imaging channels, correlations between imaging channels, textural patterns, size and shape of cellular structures, geometric relationships between intracellular structures, geometric relationships between adjacent cells, or combinations thereof. Cellular features, such as 100 or more cellular features, 500 or more cellular features, or 1000 or more cellular features, may be tracked when morphologically profiling cells. Among various methods of determining these cellular features, they may be obtained by imaging cells with or without fluorescent or non-fluorescent stains or combinations thereof, and numeric features determined by using deep learning embeddings, hand-tuned feature extraction, or combinations thereof. Other than tracking the cellular features, the morphological profiling may include reducing the output of the cellular features using statistical modeling such as principal component analysis.\nPathogenic and non-pathogenic transduced cells were cultured then morphologically profiled. A heatmap of cosine similarities between all pairs of groups (or reagents), origined by method one were generated (FIG. 7). Shown are cells transduced with BacMam vectors having BRAF V600E, KRAS G12C, KRAS G12D, MFN1, MFN1T109A, CTNNB1B, EPAS1, SMO F460L, ALK, EGFR, and some of their nonsense counterparts. […] Cosine similarities between all pairs of feature vectors that were origin by method two in FIG. 7 (FIG. 8).\nCells transduced with BacMam BRAF V600E were treated with varying concentrations of 18 compounds which include dabrafenib and vemurafenib, which target BRAF, and ulixertinib and MEK162, which target downstream biology. […] The difference in features caused by transducing the cells with BRAF V600E was determined. The effect of compounds on those features was determined within the BRAF V600E-transduced cells and also the effects of compounds on features not related to transduction with BRAF V600E. […] The efficacy of test agents in reversing a disease state can be quantified. This is calculated based on morphological profiling of cells treated with a test agent compared to cells not treated with a test agent."}, "[2]": {"test_system": "EGFR-overexpressing cells", "assay": "Morphological profiling of BacMam EGFR transduced cells treated with test agents", "assay_type": "cell-based", "conditions": "cosine similarity, treated vs not-treated EGFR overexpressing cells, FIG. 9", "source_text": "as §1"}}, "data": [{"smiles": "CC(C)(C)c1nc(-c2cccc(NS(=O)(=O)c3c(F)cccc3F)c2F)c(-c2ccnc(N)n2)s1", "note": "[dabrafenib]", "values": [{"measurement": "side effect score versus disease score (position relative to the funnel, FIG. 10)", "setting": "[1]", "value": "Separation from the funnel"}, {"measurement": "quantified reversal of the disease state (rescue of BRAF V600E overexpression phenotype)", "setting": "[1]", "value": "some of the top test agents"}]}, {"smiles": "Cn1cnc2c(F)c(Nc3ccc(Br)cc3F)c(C(=O)NOCCO)cc21", "note": "[MEK162]", "values": [{"measurement": "side effect score versus disease score (position relative to the funnel, FIG. 10)", "setting": "[1]", "value": "Separation from the funnel"}, {"measurement": "quantified reversal of the disease state (rescue of BRAF V600E overexpression phenotype)", "setting": "[1]", "value": "some of the top test agents"}]}, {"smiles": "CC(C)Nc1cc(-c2c[nH]c(C(=O)N[C@H](CO)c3cccc(Cl)c3)c2)c(Cl)cn1", "note": "[ulixertinib]", "values": [{"measurement": "side effect score versus disease score (position relative to the funnel, FIG. 10)", "setting": "[1]", "value": "Separation from the funnel"}, {"measurement": "quantified reversal of the disease state (rescue of BRAF V600E overexpression phenotype)", "setting": "[1]", "value": "some of the top test agents"}]}, {"smiles": "COc1cc2ncnc(Nc3ccc(F)c(Cl)c3)c2cc1NC(=O)/C=C/CN1CCCCC1", "note": "[dacomitinib]", "values": [{"measurement": "quantification of the reversal of the disease state (modulation of phenotypes of EGFR overexpressing cells)", "setting": "[2]", "value": "top two test agents"}]}]}
